The values below come from patent US11285119B2, “Anti-inflammatory composition” (NEOPHARM CO., LTD., priority 2016, dated 2022).

The structures appear in SMILES notation.

One series concerns IL-17A. Nature of the series: Anti-inflammatory effect: IL-17A expression in atopic dermatitis-induced 3D culture tissue (immunohistochemistry). To be noted: compared with the skin model in which atopic dermatitis was induced, 72 hours, quantified immunohistochemistry (FIG. 2), read-out: IL-17A inhibitory effect. It counts as cell-based. The procedure: (§1) In order to measure the anti-inflammatory efficacy, atopic dermatitis was induced with respect to IL-8 and IL-17A, which are inflammation-inducing cytokines, and expression amounts thereof were measured.
(§2) In order to induce atopic dermatitis, the 3D culture tissue (EpiDerm Full Thickness 400, sold by MatTek) media containing Poly (I:C), TNF-α, IL-4 and IL-13 were used, and treated for 72 hours with N-(2-hydroxyethyl)octanamide at a final concentration of 100 μM. Then, the 3D culture tissue was immobilized on formalin to make a paraffin block, and the degree of expression of inflammation-inducing cytokine was evaluated.
(§3) In FIG. 1, AD represents a skin model in which atopic dermatitis was induced, and the anti-inflammatory effect was evaluated based on the expression amounts of IL-8 and IL-17A.
(§4) Further, the inhibitory effect of each cytokine was quantified based on the results obtained through the immunohistochemistry obtained in FIG. 1, and shown in FIG. 2.

The test system of the next series is IL-8. In words: Anti-inflammatory effect: IL-8 expression in atopic dermatitis-induced 3D culture tissue (immunohistochemistry). It counts as cell-based. The settings on record: compared with the skin model in which atopic dermatitis was induced, 72 hours, quantified immunohistochemistry (FIG. 2), read-out: IL-8 inhibitory effect. The procedure: as §1, §2, §3, §4

In a further series the test system is atopic dermatitis. Nature of the series: Atopic dermatitis improvement effect (EASI score) in pediatric patients. In kind it is in vivo, human. To be noted: 30 pediatric patients with atopic dermatitis, twice a day for 4 weeks. The procedure:
In order to measure atopic dermatitis improvement effect, the anti-inflammatory compositions were prepared according to the following Examples. Here, the atopic dermatitis improvement effect was measured using an eczema area severity index (EASI) score. 30 pediatric patients with atopic dermatitis were treated twice a day for 4 weeks, and then effects on atopic symptoms were measured.

The test system of series [1] is human fibroblast (ATCC 2076). In words: Confirmation of cytotoxicity (MTT cell viability). It counts as cell-based. To be noted: for Cell viability (%): human fibroblast, MTT. The procedure: The cell viability for human fibroblast (ATCC 2076) was measured using the anti-inflammatory composition prepared in the following Examples.
The human fibroblast (ATCC 2076) with a concentration of 5×10^4 cells/ml was inoculated into a 24-well culture plate of Iscove's Modified Dulbecco's Medium (IMDM, GIBCO) containing 10% bovine serum. […] Then, the supernatant was removed, the cells were washed with 200 μl of 5% phosphate buffered saline (PBS), 1.0 ml of MTT solution was added to each well, and after 4 hours, and the MTT was removed. Next, 1.0 ml of DMSO was added to each well, and incubation was performed overnight at 37° C. The absorbance at 570 nm was measured to determine the cell viability using Equation 1 below, and results thereof are shown in Table 1 below. Here, as a negative control group, a test group in which the active ingredient was not used was adopted. Cell viability (%)=(A570λvalue/B570λvalue)×100 [Equation 1]
A: Absorbance value at 570 nm of Example
B: Absorbance value at 570 nm of negative control group

As to `CCCCC(CC)C(=O)NC(CO)CO` (stereo not shown) [Example 1, N-(1,3-dihydroxypropan-2-yl)-2-ethylhexanamide], the inhibition at 100 µM in the series on IL-17A is ≥ 58.9%; in the series on IL-8, ≥ 48.5%. Moreover, the “Atopic dermatitis improvement effect (EASI score)” value in the series on atopic dermatitis is listed as “significant numerical decrease”. Also, the Cytotoxicity result in series [1] (in the concentration range of the evaluation method) is on record as “no cytotoxicity”. Further, the “Cell viability (%)” value in series [1] (used amount 0.00064 μM) was determined as 110%; in series [1] (used amount 0.0032 μM), 106%; in series [1] (used amount 0.016 μM) it was 99%; in series [1] (used amount 0.08 μM) it was 100%; in series [1] (used amount 0.4 μM), 98%; in series [1] (used amount 2 μM) it was 101%. For the same compound, the entries for the “Cell viability (%)” value in series [1] (used amount 10 μM), in series [1] (used amount 50 μM) and in series [1] (used amount 250 μM) were 101%, 101% and 108%, respectively.
